Structures are written as SMILES.

The target in the assay is Nav 1.7 (Homo sapiens (Human), UniProt Q15858). The assay can be described thus: in-vitro Nav 1.7 PX (IC50). Format: cell-based. Conditions: in-vitro Nav 1.7 PX data.
Sequence of Nav 1.7 (Q15858 whole entry): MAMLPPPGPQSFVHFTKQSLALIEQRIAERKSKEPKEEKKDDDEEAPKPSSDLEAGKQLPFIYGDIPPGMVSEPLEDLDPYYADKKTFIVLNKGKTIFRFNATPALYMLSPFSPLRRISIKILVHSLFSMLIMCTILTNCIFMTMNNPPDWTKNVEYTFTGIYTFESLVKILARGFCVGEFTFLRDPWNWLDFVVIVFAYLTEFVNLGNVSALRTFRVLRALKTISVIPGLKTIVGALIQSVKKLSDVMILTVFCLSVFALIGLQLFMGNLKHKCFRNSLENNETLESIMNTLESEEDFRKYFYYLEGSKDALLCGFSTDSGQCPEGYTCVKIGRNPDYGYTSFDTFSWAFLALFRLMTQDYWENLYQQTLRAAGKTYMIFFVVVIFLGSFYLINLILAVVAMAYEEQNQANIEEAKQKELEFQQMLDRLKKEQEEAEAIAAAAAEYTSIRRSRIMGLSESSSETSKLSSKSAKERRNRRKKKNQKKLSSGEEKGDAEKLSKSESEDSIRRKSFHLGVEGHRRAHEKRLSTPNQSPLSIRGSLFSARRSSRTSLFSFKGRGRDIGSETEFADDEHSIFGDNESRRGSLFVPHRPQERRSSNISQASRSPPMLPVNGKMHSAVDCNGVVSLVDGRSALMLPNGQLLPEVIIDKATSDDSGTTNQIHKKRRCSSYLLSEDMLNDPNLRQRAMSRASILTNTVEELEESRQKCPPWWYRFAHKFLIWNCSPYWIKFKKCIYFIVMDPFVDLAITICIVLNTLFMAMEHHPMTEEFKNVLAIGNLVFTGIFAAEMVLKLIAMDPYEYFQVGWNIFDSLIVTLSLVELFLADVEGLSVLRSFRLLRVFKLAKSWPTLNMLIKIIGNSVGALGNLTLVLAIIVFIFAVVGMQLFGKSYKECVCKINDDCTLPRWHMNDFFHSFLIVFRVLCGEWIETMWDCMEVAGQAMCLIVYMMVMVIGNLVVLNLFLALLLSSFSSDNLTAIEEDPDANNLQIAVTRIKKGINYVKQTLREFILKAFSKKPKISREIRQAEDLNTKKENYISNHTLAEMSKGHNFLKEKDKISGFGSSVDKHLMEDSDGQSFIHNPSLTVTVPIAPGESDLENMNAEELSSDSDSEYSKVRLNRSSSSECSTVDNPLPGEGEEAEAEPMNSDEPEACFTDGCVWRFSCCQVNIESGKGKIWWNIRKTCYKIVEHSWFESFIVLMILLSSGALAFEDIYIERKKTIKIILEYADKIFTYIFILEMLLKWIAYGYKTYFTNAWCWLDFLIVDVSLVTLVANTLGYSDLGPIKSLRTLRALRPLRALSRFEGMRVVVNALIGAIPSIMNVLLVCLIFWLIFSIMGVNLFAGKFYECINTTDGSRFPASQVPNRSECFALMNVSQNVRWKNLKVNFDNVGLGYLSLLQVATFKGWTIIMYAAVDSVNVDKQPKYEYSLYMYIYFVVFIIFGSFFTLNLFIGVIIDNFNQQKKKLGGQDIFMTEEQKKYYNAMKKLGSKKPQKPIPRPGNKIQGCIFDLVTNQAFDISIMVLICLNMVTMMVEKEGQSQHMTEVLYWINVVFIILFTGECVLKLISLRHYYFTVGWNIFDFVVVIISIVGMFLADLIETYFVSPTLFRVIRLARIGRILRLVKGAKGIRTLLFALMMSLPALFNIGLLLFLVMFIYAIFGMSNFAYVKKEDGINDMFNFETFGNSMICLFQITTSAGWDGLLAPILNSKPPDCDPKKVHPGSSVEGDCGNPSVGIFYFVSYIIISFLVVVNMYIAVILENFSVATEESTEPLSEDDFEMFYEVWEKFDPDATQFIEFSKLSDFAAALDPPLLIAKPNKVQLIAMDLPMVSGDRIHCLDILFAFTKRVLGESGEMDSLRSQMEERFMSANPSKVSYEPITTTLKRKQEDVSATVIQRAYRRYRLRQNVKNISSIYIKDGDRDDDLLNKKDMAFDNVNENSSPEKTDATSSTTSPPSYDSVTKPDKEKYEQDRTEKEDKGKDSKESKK
One may read the IC50 as the concentration that gives 50% inhibition. Read a high IC50 as weaker potency in that assay. Consider `COc1cc(CC2CCCCC2)c(F)cc1-n1c(=O)ccc2cc(S(=O)(=O)Nc3ncc(F)cn3)ccc21` [Example 1111, 1-(4-(cyclohexylmethyl)-5-fluoro-2-methoxyphenyl)-N-(5-fluoro-2-pyrimidinyl)-2-oxo-1,2-dihydro-6-quinolinesulfonamide], for which inhibition was half-maximal at 88 nM (IC50).
Consider `COc1cc(CC2CCCCC2)c(F)cc1-n1c(=O)ccc2cc(S(=O)(=O)Nc3cccnn3)ccc21` [Example 1112, 1-(4-(cyclohexylmethyl)-5-fluoro-2-methoxyphenyl)-2-oxo-N-3-pyridazinyl-1,2-dihydro-6-quinolinesulfonamide], for which the half-maximal inhibitory concentration (IC50) turned out to be 25 nM.
In the case of `COc1cc(-c2cccc(C)c2)ccc1-n1c(=O)ccc2cc(S(=O)(=O)Nc3ncco3)ccc21` [Example 1113, 1-(3-methoxy-3′-methyl-4-biphenylyl)-N-1,3-oxazol-2-yl-2-oxo-1,2-dihydro-6-quinolinesulfonamide] it was 44 nM; in that of `COc1cc(-c2cccc(C)c2)c(F)cc1-n1c(=O)ccc2cc(S(=O)(=O)Nc3ncon3)ccc21` [Example 1114, 1-(2-fluoro-5-methoxy-3′-methyl-4-biphenylyl)-N-1,2,4-oxadiazol-3-yl-2-oxo-1,2-dihydro-6-quinolinesulfonamide], 35 nM; in that of `COc1cc(CC2CCCCC2)c(F)cc1-n1c(=O)ccc2cc(S(=O)(=O)Nc3ccncn3)ccc21` [Example 1115, 1-(4-(cyclohexylmethyl)-5-fluoro-2-methoxyphenyl)-2-oxo-N-4-pyrimidinyl-1,2-dihydro-6-quinolinesulfonamide], 81 nM.
The same measure for `COc1cc(CC2CCCCC2)c(F)cc1-n1c(=O)ccc2cc(S(=O)(=O)Nc3cnccn3)ccc21` [Example 1116, 1-(4-(cyclohexylmethyl)-5-fluoro-2-methoxyphenyl)-2-oxo-N-2-pyrazinyl-1,2-dihydro-6-quinolinesulfonamide]: 30 nM.
`COc1cc(-c2cccc(C)c2)ccc1-n1c(=O)ccc2cc(S(=O)(=O)Nc3ncccn3)ccc21` [Example 1117, 1-(3-methoxy-3′-methyl-4-biphenylyl)-2-oxo-N-2-pyrimidinyl-1,2-dihydro-6-quinolinesulfonamide] showed an IC50 of 59 nM.
In turn, `COc1cc(C[C@H]2CCCOC2)c(F)cc1-n1c(=O)ccc2cc(S(=O)(=O)Nc3ccon3)ccc21` [Example 1118, 1-(5-fluoro-2-methoxy-4-((3R)-tetrahydro-2H-pyran-3-ylmethyl)phenyl)-N-3-isoxazolyl-2-oxo-1,2-dihydro-6-quinolinesulfonamide, 1-(5-fluoro-2-methoxy-4-((3S)-tetrahydro-2H-pyran-3-ylmethyl)phenyl)-N-3-isoxazolyl-2-oxo-1,2-dihydro-6-quinolinesulfonamide] had an IC50 of 1480 nM.
`COc1cc(-c2cccc(C)c2)ccc1-n1c(=O)ccc2cc(S(=O)(=O)Nc3ncc(F)cn3)ccc21` [Example 1119, N-(5-fluoro-2-pyrimidinyl)-1-(3-methoxy-3′-methyl-4-biphenylyl)-2-oxo-1,2-dihydro-6-quinolinesulfonamide] returned an IC50 of 40 nM.
In the case of `COc1cc(-c2cccc(C)c2)ccc1-n1c(=O)ccc2cc(S(=O)(=O)Nc3cccnn3)ccc21` [Example 1120, 1-(3-methoxy-3′-methyl-4-biphenylyl)-2-oxo-N-3-pyridazinyl-1,2-dihydro-6-quinolinesulfonamide] it was 108 nM.
As to `COc1cc(CC2CCOCC2)c(F)cc1-n1c(=O)ccc2cc(S(=O)(=O)Nc3ccon3)ccc21` [Example 1121, 1-(5-fluoro-2-methoxy-4-(tetrahydro-2H-pyran-4-ylmethyl)phenyl)-N-3-isoxazolyl-2-oxo-1,2-dihydro-6-quinolinesulfonamide], half-maximal inhibition (IC50) was put at 694 nM.
Turning to `COc1cc(C#CC(C)(C)C)c(F)cc1-n1c(=O)ccc2cc(S(=O)(=O)Nc3ccon3)ccc21` [Example 1122, 1-(4-(3,3-dimethyl-1-butyn-1-yl)-5-fluoro-2-methoxyphenyl)-N-3-isoxazolyl-2-oxo-1,2-dihydro-6-quinolinesulfonamide], the midpoint of inhibition, the IC50, lay at 80 nM.
In the case of `COc1cc(C[C@@H]2CCOC2)c(F)cc1-n1c(=O)ccc2cc(S(=O)(=O)Nc3ccon3)ccc21` [Example 1123, 1-(5-fluoro-2-methoxy-4-((3R)-tetrahydro-3-furanylmethyl)phenyl)-N-3-isoxazolyl-2-oxo-1,2-dihydro-6-quinolinesulfonamide, 1-(5-fluoro-2-methoxy-4-((3S)-tetrahydro-3-furanylmethyl)phenyl)-N-3-isoxazolyl-2-oxo-1,2-dihydro-6-quinolinesulfonamide] it was 1600 nM; in that of `COc1cc(-c2ccc(C)c(F)c2)c(F)cc1-n1c(=O)ccc2cc(S(=O)(=O)Nc3ccnc(C)n3)ccc21` [Example 1124, 1-(2,3′-difluoro-5-methoxy-4′-methyl-4-biphenylyl)-N-(2-methyl-4-pyrimidinyl)-2-oxo-1,2-dihydro-6-quinolinesulfonamide], 106 nM; in that of `COc1cc(-c2ccc(C)c(F)c2)c(F)cc1-n1c(=O)ccc2cc(S(=O)(=O)Nc3ncco3)ccc21` [Example 1125, 1-(2,3′-difluoro-5-methoxy-4′-methyl-4-biphenylyl)-N-1,3-oxazol-2-yl-2-oxo-1,2-dihydro-6-quinolinesulfonamide], 81 nM.
In turn, `COc1cc(-c2ccc(C)c(F)c2)c(F)cc1-n1c(=O)ccc2cc(S(=O)(=O)Nc3ncccn3)ccc21` [Example 1126, 1-(2,3′-difluoro-5-methoxy-4′-methyl-4-biphenylyl)-2-oxo-N-2-pyrimidinyl-1,2-dihydro-6-quinolinesulfonamide] came in with an IC50 of 57 nM.
The same measure for `COc1cc(-c2ccc(C)c(F)c2)c(F)cc1-n1c(=O)ccc2cc(S(=O)(=O)Nc3ncc(F)cn3)ccc21` [Example 1127, 1-(2,3′-difluoro-5-methoxy-4′-methyl-4-biphenylyl)-N-(5-fluoro-2-pyrimidinyl)-2-oxo-1,2-dihydro-6-quinolinesulfonamide]: 34 nM; for `COc1cc(-c2ccc(C)c(F)c2)c(F)cc1-n1c(=O)ccc2cc(S(=O)(=O)Nc3cccnn3)ccc21` [Example 1128, 1-(2,3′-difluoro-5-methoxy-4′-methyl-4-biphenylyl)-2-oxo-N-3-pyridazinyl-1,2-dihydro-6-quinolinesulfonamide]: 36 nM.
Take `COc1cc(-c2ccc(C)c(F)c2)c(F)cc1-n1c(=O)ccc2cc(S(=O)(=O)Nc3cc(C)ncn3)ccc21` [Example 1129, 1-(2,3′-difluoro-5-methoxy-4′-methyl-4-biphenylyl)-N-(6-methyl-4-pyrimidinyl)-2-oxo-1,2-dihydro-6-quinolinesulfonamide]: the IC50 turned out to be 80 nM.
In the case of `COc1cc(C#CC2CC2)c(F)cc1-n1c(=O)ccc2cc(S(=O)(=O)Nc3ccon3)ccc21` [Example 1130, 1-(4-(cyclopropylethynyl)-5-fluoro-2-methoxyphenyl)-N-3-isoxazolyl-2-oxo-1,2-dihydro-6-quinolinesulfonamide] it was 209 nM; in that of `COc1cc(-c2cccc(C)c2)ccc1-n1c(=O)ccc2cc(S(=O)(=O)Nc3cc(C)ncn3)ccc21` [Example 1131, 1-(3-methoxy-3′-methyl-4-biphenylyl)-N-(6-methyl-4-pyrimidinyl)-2-oxo-1,2-dihydro-6-quinolinesulfonamide], 155 nM; in that of `COc1cc(-c2cccc(C)c2)ccc1-n1c(=O)ccc2cc(S(=O)(=O)Nc3ccnc(C)n3)ccc21` [Example 1132, 1-(3-methoxy-3′-methyl-4-biphenylyl)-N-(2-methyl-4-pyrimidinyl)-2-oxo-1,2-dihydro-6-quinolinesulfonamide], 192 nM.
Turning to `COc1cc(C[C@H]2CCCCO2)c(F)cc1-n1c(=O)ccc2cc(S(=O)(=O)Nc3ccon3)ccc21` [Example 1133, 1-(5-fluoro-2-methoxy-4-((2R)-tetrahydro-2H-pyran-2-ylmethyl)phenyl)-N-3-isoxazolyl-2-oxo-1,2-dihydro-6-quinolinesulfonamide, 1-(5-fluoro-2-methoxy-4-((2S)-tetrahydro-2H-pyran-2-ylmethyl)phenyl)-N-3-isoxazolyl-2-oxo-1,2-dihydro-6-quinolinesulfonamide], inhibition was half-maximal at 2260 nM (IC50).
The compound `COc1cc(C#CC2CCCC2)c(F)cc1-n1c(=O)ccc2cc(S(=O)(=O)Nc3ncccn3)ccc21` [Example 1134, 1-(4-(cyclopentylethynyl)-5-fluoro-2-methoxyphenyl)-2-oxo-N-2-pyrimidinyl-1,2-dihydro-6-quinolinesulfonamide] registered an IC50 of 26 nM.
The same measure for `COc1cc(C#CC2CCCC2)c(F)cc1-n1c(=O)ccc2cc(S(=O)(=O)Nc3ncc(F)cn3)ccc21` [Example 1135, 1-(4-(cyclopentylethynyl)-5-fluoro-2-methoxyphenyl)-N-(5-fluoro-2-pyrimidinyl)-2-oxo-1,2-dihydro-6-quinolinesulfonamide]: 114 nM.
The compound `COc1cc(C#CC2CCCC2)c(F)cc1-n1c(=O)ccc2cc(S(=O)(=O)Nc3ncco3)ccc21` [Example 1136, 1-(4-(cyclopentylethynyl)-5-fluoro-2-methoxyphenyl)-N-1,3-oxazol-2-yl-2-oxo-1,2-dihydro-6-quinolinesulfonamide] yielded an IC50 of 48 nM.
In the case of `COc1cc(-c2cccc(C(F)(F)F)c2)ccc1-n1c(=O)ccc2cc(S(=O)(=O)Nc3cc(C)cnn3)ccc21` [Example 1137, 1-(3-methoxy-3′-(trifluoromethyl)-4-biphenylyl)-N-(5-methyl-3-pyridazinyl)-2-oxo-1,2-dihydro-6-quinolinesulfonamide], half-maximal inhibition (IC50) required 36 nM.
Turning to `COc1cc(-c2cccc(C(F)(F)F)c2)ccc1-n1c(=O)ccc2cc(S(=O)(=O)Nc3ccc(C)nn3)ccc21` [Example 1138, 1-(3-methoxy-3′-(trifluoromethyl)-4-biphenylyl)-N-(6-methyl-3-pyridazinyl)-2-oxo-1,2-dihydro-6-quinolinesulfonamide], the IC50 came to 146 nM. Compared with the last compound, the IC50 is about 4.1-fold higher.
As to `COc1cc(C#CC(C)(C)O)c(F)cc1-n1c(=O)ccc2cc(S(=O)(=O)Nc3ccon3)ccc21` [Example 1139, 1-(5-fluoro-4-(3-hydroxy-3-methyl-1-butyn-1-yl)-2-methoxyphenyl)-N-3-isoxazolyl-2-oxo-1,2-dihydro-6-quinolinesulfonamide], the IC50 worked out at 7380 nM.

The values are drawn from US9212182B2, “Bicyclic sulfonamide compounds as sodium channel inhibitors” (AMGEN INC., priority 2013, dated 2015).
